The results in this text go back to US5714494A, “Xanthines in the 7th position with a benzyl acetic acid moiety” (Bayer Aktiengesellschaft, priority 1995, dated 1998).

Molecules are shown by their SMILES.

One assay concerns ApoB-100-associated lipoproteins. The experiment in a line: Inhibition of the release of ApoB-100-associated lipoproteins from HepG2 cells (immunoassay for human LDL). The class given is cell-based. The following applies: HepG2 cells; light absorption 450 nm vs solvent control. The method, then:
The test for detecting inhibition of the release of ApoB-100-associated lipoproteins from liver cells was carried out in vitro using cultured liver cells, preferably using cells of the human line HepG2. These cells are grown under standard conditions in medium for the culture of eucaryotic cells, preferably in RPMI 1640 using 10% foetal calf serum. HepG2 cells synthesize and secrete into the culture supernatant ApoB-100-associated lipoprotein particles which in principle are synthesized in a similar manner to the VLDL and LDL particles which are to be found in the plasma.
These particles can be detected using an immunoassay for human LDL. This immunoassay is carried out using antibodies which have been induced in the rabbit against human LDL under standard conditions. The anti-LDL antibodies (rabbit anti-LDL-Ab) were purified by affinity chromatography on an immunosorbent using human LDL. These purified rabbit anti-LDL Ab are adsorbed on the surface of plastic. Expediently, this adsorption is carried out on the plastic surface of microtitre plates having 96 wells, preferably on MaxiSorp plates. If ApoB-100-associated particles are present in the supernatant of Hep-G2 cells, these can bind to the insolubilized rabbit anti-LDL Ab, and an immune complex is formed which is bound to the plastic surface. Unbound proteins are removed by washing. The immune complex located on the plastic surface is detected using monoclonal antibodies which have been induced against human LDL according to standard conditions and purified. These antibodies were conjugated with the enzyme peroxidase. Peroxidase converts the colourless substrate TMB into a coloured product in the presence of H2 O2. After acidification of the reaction mixture using H2 SO4, the specific light absorption at 450 mn is determined, which is a measure of the amount of ApoB-100-associated particles which have been secreted into the culture supernatant by the HepG2 cells.
The IC50 value indicates at which substance concentration the light absorption is inhibited by 50% in comparison with the control (solvent control without substance).
A word on the IC50: it is the concentration needed to halve the response being measured. A low value points to greater potency in that assay. `Cc1ccc(Cc2nc3c(c(=O)n(C)c(=O)n3C)n2Cc2ccc(C(C(=O)N[C@@H](CO)c3ccccc3)C3CCCC3)cc2)cc1` (single isomer, unassigned) [Example 183] showed an IC50 of 10 nM.

Consider `Cn1c(=O)c2c(nc(Cc3ccc(F)cc3)n2Cc2ccc(C(C(=O)N[C@@H](CO)c3ccccc3)C3CCCC3)cc2)n(C)c1=O` (single isomer, unassigned) [Example 196], for which the IC50 stood at 61 nM. Against the preceding compound, the IC50 is about 6.1-fold higher.

In the case of `Cn1c(=O)c2c(nc(Cc3ccccc3Cl)n2Cc2ccc(C(C(=O)N[C@@H](CO)c3ccccc3)C3CCCC3)cc2)n(C)c1=O` (single isomer, unassigned) [Example 189], the IC50 is 31 nM. Against the preceding compound, the IC50 is about 2-fold lower.

For `Cn1c(=O)c2c(nc(-c3cccs3)n2Cc2ccc(C(C(=O)N[C@@H](CO)c3ccccc3)C3CCCC3)cc2)n(C)c1=O` (single isomer, unassigned) [Example 159], the 50% inhibitory concentration (IC50) is 25 nM. This IC50 and that of the compound before are within 1.5-fold of each other.

For `Cc1cccc(Cc2nc3c(c(=O)n(C)c(=O)n3C)n2Cc2ccc(C(C(=O)N[C@@H](CO)c3ccccc3)C3CCCC3)cc2)c1` (single isomer, unassigned) [Example 181], the IC50 turned out to be 10 nM.

In the case of `Cn1c(=O)c2c(nc(-c3cccs3)n2Cc2ccc(C(C(=O)N[C@@H](CO)c3ccccc3)C3CCCC3)cc2)n(C)c1=O` (single isomer, unassigned) [Example 158], the half-inhibitory concentration (IC50) came out at 2 nM.

In turn, `Cn1c(=O)c2c(nc(Cc3ccccc3Cl)n2Cc2ccc(C(C(=O)N[C@@H](CO)c3ccccc3)C3CCCC3)cc2)n(C)c1=O` (single isomer, unassigned) [Example 190] yielded an IC50 of 86 nM. This IC50 is about 43-fold higher than that of the compound before.

Turning to `Cn1c(=O)c2c(nc(Cc3cccc(Cl)c3)n2Cc2ccc(C(C(=O)N[C@@H](CO)c3ccccc3)C3CCCC3)cc2)n(C)c1=O` (single isomer, unassigned) [Example 193], half-maximal inhibition (IC50) required 62 nM.

On to `Cn1c(=O)c2c(nc(Br)n2Cc2ccc(C(C(=O)N[C@@H](CO)c3ccccc3)C3CCCC3)cc2)n(C)c1=O` (single isomer, unassigned) [Example 118], for which the IC50 turned out to be 7 nM.

As to `Cn1c(=O)c2c(nc(-c3ccccc3)n2Cc2ccc(C(C(=O)N[C@@H](CO)c3ccccc3)C3CCCC3)cc2)n(C)c1=O` (single isomer, unassigned) [Example 131], the half-inhibitory concentration (IC50) came to 135 nM.

`Cc1ccc(Cc2nc3c(c(=O)n(C)c(=O)n3C)n2Cc2ccc(C(C(=O)N[C@@H](CO)c3ccccc3)C3CCCC3)cc2)cc1` (single isomer, unassigned) [Example 184]: the half-inhibitory concentration (IC50) is 24 nM.

`COc1cccc(Cc2nc3c(c(=O)n(C)c(=O)n3C)n2Cc2ccc(C(C(=O)N[C@@H](CO)c3ccccc3)C3CCCC3)cc2)c1` (single isomer, unassigned) [Example 199] returned a concentration for half-maximal inhibition (IC50) of 5 nM.

On to `Cc1ccc(-c2nc3c(c(=O)n(C)c(=O)n3C)n2Cc2ccc(C(C(=O)N[C@@H](CO)c3ccccc3)C3CCCC3)cc2)cc1` (single isomer, unassigned) [Example 137], for which the half-inhibitory concentration (IC50) was determined as 124 nM. This IC50 is about 25-fold higher than that of the compound before.

`Cn1c(=O)c2c(nc(Cc3ccccc3)n2Cc2ccc(C(C(=O)N[C@@H](CO)c3ccccc3)C3CCCC3)cc2)n(C)c1=O` (single isomer, unassigned) [Example 170] gave a concentration for half-maximal inhibition (IC50) of 16 nM.

As for `Cn1c(=O)c2c(nc(-c3ccsc3)n2Cc2ccc(C(C(=O)N[C@@H](CO)c3ccccc3)C3CCCC3)cc2)n(C)c1=O` (single isomer, unassigned) [Example 155], the 50% inhibitory concentration (IC50) was 2 nM.

For `COc1cccc(Cc2nc3c(c(=O)n(C)c(=O)n3C)n2Cc2ccc(C(C(=O)N[C@@H](CO)c3ccccc3)C3CCCC3)cc2)c1` (single isomer, unassigned) [Example 200], half-maximal inhibition (IC50) required 24 nM. Against the preceding compound, the IC50 is about 12-fold higher.

Take `Cn1c(=O)c2c(ncn2Cc2ccc(C(C(=O)N[C@@H](CO)c3ccccc3)C3CCCC3)cc2)n(C)c1=O` (single isomer, unassigned) [Example 115]: inhibition was half-maximal at 240 nM (IC50).

The assay is the same for the next values; noted with them: Homo sapiens, HepG2, HepG2 cells; light absorption 450 nm vs solvent control.
The compound `Cn1c(=O)c2c(nc(Cc3ccc(-c4ccccc4)cc3)n2Cc2ccc(C(C(=O)N[C@@H](CO)c3ccccc3)C3CCCC3)cc2)n(C)c1=O` (stereo partly drawn) [Example 185] came in with an IC50 of 29 nM.

In the case of `CCn1c(=O)c2c(nc(-c3cccs3)n2Cc2ccc(C(C(=O)N[C@@H](CO)c3ccccc3)C3CCCC3)cc2)n(CC)c1=O` (stereo partly drawn) [Example 219], the 50% inhibitory concentration (IC50) was determined as 5 nM.

In turn, `Cn1c(=O)c2c(nc(Cc3ccc(F)cc3)n2Cc2ccc(C(C(=O)N[C@@H](CO)c3ccccc3)C3CCCC3)cc2)n(C)c1=O` (stereo partly drawn) [Example 194] yielded an IC50 of 8 nM. This IC50 lies about 1.6-fold higher than the previous one.

In turn, `Cn1c(=O)c2c(nc(-c3cccs3)n2Cc2ccc(C(C(=O)N[C@@H](CO)c3ccccc3)C3CCCC3)cc2)n(C)c1=S` (stereo partly drawn) [Example 225] came in with an IC50 of 4 nM.

Compound `COc1cccc(Cc2nc3c(c(=O)n(C)c(=O)n3C)n2Cc2ccc(C(C(=O)N[C@@H](CO)c3ccccc3)C3CCCC3)cc2)c1` (stereo partly drawn) [Example 198] yielded an IC50 of 5 nM.

On to `Cc1nc2c(c(=O)n(C)c(=S)n2C)n1Cc1ccc(C(C(=O)N[C@@H](CO)c2ccccc2)C2CCCC2)cc1` (stereo partly drawn) [Example 223], for which the IC50 stood at 4 nM.

On to `Cn1c(=O)c2c(nc(Cc3ccccc3)n2Cc2ccc(C(C(=O)N[C@@H](CO)c3ccccc3)C3CCCC3)cc2)n(C)c1=O` (stereo partly drawn) [Example 168], for which the IC50 was 16 nM.

Take `CCc1nc2c(c(=O)n(C)c(=S)n2C)n1Cc1ccc(C(C(=O)N[C@@H](CO)c2ccccc2)C2CCCC2)cc1` (stereo partly drawn) [Example 224]: the IC50 was found to be 4 nM.

Compound `Cn1c(=O)c2c(nc(Cc3ccccc3)n2Cc2ccc(C(C(=O)N[C@@H](CO)c3ccccc3)C3CCCCC3)cc2)n(C)c1=O` (stereo partly drawn) [Example 171] showed an IC50 of 2 nM.

In turn, `Cn1c(=O)c2c(nc(C3CC3)n2Cc2ccc(C(C(=O)N[C@@H](CO)c3ccccc3)C3CCCC3)cc2)n(C)c1=O` (stereo partly drawn) [Example 121] yielded a half-maximal inhibitory concentration (IC50) of 36 nM.

`Cc1ccccc1-c1nc2c(c(=O)n(C)c(=O)n2C)n1Cc1ccc(C(C(=O)N[C@@H](CO)c2ccccc2)C2CCCC2)cc1` (stereo partly drawn) [Example 132] came in with an IC50 of 743 nM.

`Cn1c(=O)c2c(nc(C3CCCC3)n2Cc2ccc(C(C(=O)N[C@@H](CO)c3ccccc3)C3CCCC3)cc2)n(C)c1=O` (stereo partly drawn) [Example 122]: the IC50 was determined as 48 nM.

Compound `CCn1c(=O)c2c(ncn2Cc2ccc(C(C(=O)N[C@@H](CO)c3ccccc3)C3CCCC3)cc2)n(CC)c1=O` (single isomer, unassigned) [Example 212] yielded a half-inhibitory concentration (IC50) of 8 nM.

Compound `CCc1nc2c(c(=O)n(CC)c(=O)n2CC)n1Cc1ccc(C(C(=O)N[C@@H](CO)c2ccccc2)C2CCCC2)cc1` (stereo partly drawn) [Example 215] registered a concentration for half-maximal inhibition (IC50) of 3 nM.

For the compound `CCn1c(=O)c2c(nc(-c3ccccc3)n2Cc2ccc(C(C(=O)N[C@@H](CO)c3ccccc3)C3CCCC3)cc2)n(CC)c1=O` (stereo partly drawn) [Example 217], the half-maximal inhibitory concentration (IC50) amounted to 11 nM.

For the compound `Cn1c(=O)c2c(nc(Cc3ccccc3)n2Cc2ccc(C(C(=O)N[C@@H](CO)c3ccccc3)C3CCCCC3)cc2)n(C)c1=O` (single isomer, unassigned) [Example 172], the IC50 was determined as 1 nM.

Compound `Cn1c(=O)c2c(nc(-c3cccnc3)n2Cc2ccc(C(C(=O)N[C@@H](CO)c3ccccc3)C3CCCC3)cc2)n(C)c1=O` (stereo partly drawn) [Example 152] registered an IC50 of 169 nM.

Take `Cc1ccc(-c2nc3c(c(=O)n(C)c(=O)n3C)n2Cc2ccc(C(C(=O)N[C@@H](CO)c3ccccc3)C3CCCC3)cc2)s1` (stereo partly drawn) [Example 163]: half-maximal inhibition (IC50) required 131 nM.

With `Cn1c(=O)c2c(nc(Cc3cccs3)n2Cc2ccc(C(C(=O)N[C@@H](CO)c3ccccc3)C3CCCC3)cc2)n(C)c1=O` (stereo partly drawn) [Example 126], the IC50 turned out to be 41 nM. This IC50 lies about 3.2-fold lower than the previous one.

Consider `CCn1c(=O)c2c(nc(-c3ccc(C)cc3)n2Cc2ccc(C(C(=O)N[C@@H](CO)c3ccccc3)C3CCCC3)cc2)n(CC)c1=O` (stereo partly drawn) [Example 218], for which 8 nM corresponded to half-maximal inhibition (IC50).

In turn, `Cn1c(=O)c2c(nc(Cc3ccccc3Cl)n2Cc2ccc(C(C(=O)N[C@@H](CO)c3ccccc3)C3CCCC3)cc2)n(C)c1=O` (stereo partly drawn) [Example 188] displayed an IC50 of 23 nM.

`Cn1c(=O)c2c(nc(Cc3ccccc3O)n2Cc2ccc(C(C(=O)N[C@@H](CO)c3ccccc3)C3CCCC3)cc2)n(C)c1=O` (stereo partly drawn) [Example 204] returned a concentration for half-maximal inhibition (IC50) of 16 nM.

As for `Cc1cccc(Cc2nc3c(c(=O)n(C)c(=O)n3C)n2Cc2ccc(C(C(=O)N[C@@H](CO)c3ccccc3)C3CCCC3)cc2)c1` (single isomer, unassigned) [Example 180], inhibition was half-maximal at 5 nM (IC50).

As to `CCn1c(=O)c2c(ncn2Cc2ccc(C(C(=O)N[C@@H](CO)c3ccccc3)C3CCCC3)cc2)n(CC)c1=O` (stereo partly drawn) [Example 211], inhibition was half-maximal at 9 nM (IC50).

On to `CCn1c(=O)c2c(nc(C3CC3)n2Cc2ccc(C(C(=O)N[C@@H](CO)c3ccccc3)C3CCCC3)cc2)n(CC)c1=O` (stereo partly drawn) [Example 216], for which the midpoint of inhibition, the IC50, lay at 34 nM. This IC50 is about 3.8-fold higher than that of the compound before.

Regarding `Cn1c(=O)c2c(nc(Cc3cccc(O)c3)n2Cc2ccc(C(C(=O)N[C@@H](CO)c3ccccc3)C3CCCC3)cc2)n(C)c1=O` (stereo partly drawn) [Example 207], the IC50 was 40 nM.

As for `Cc1ccc(-c2nc3c(c(=O)n(C)c(=O)n3C)n2Cc2ccc(C(C(=O)N[C@@H](CO)c3ccccc3)C3CCCC3)cc2)c(C)c1` (stereo partly drawn) [Example 138], 403 nM corresponded to half-maximal inhibition (IC50).

On to `CCc1nc2c(c(=O)n(C)c(=O)n2C)n1Cc1ccc(C(C(=O)N[C@@H](CO)c2ccccc2)C2CCCC2)cc1` (stereo partly drawn) [Example 120], for which the 50% inhibitory concentration (IC50) stood at 28 nM. Against the preceding compound, the IC50 is about 14-fold lower.
